Results published in patent EP2792359A1, “Treatment of L-DOPA-induced dyskinesia with OPC-14523 or OPC-34712” (Merz Pharma GmbH & Co. KGaA, priority 2013, dated 2014).

Columns and labels:
6-OHDA-lesioned rats = experiment: L-DOPA induced dyskinesia (AIM scores) in the 6-OHDA-lesioned rat model of Parkinson's disease; assay type: in vivo, Sprague Dawley rats; details: for reduction of LID: comparators, data not shown, dose not given
5-HT1B = molecular target: T1, 5-HT1B (Homo sapiens, UniProt P28222); experiment: 5-HT1B cAMP HTRF assay (agonist test, Euroscreen FAST-0501C); assay type: cell-based
T1 construct: host or cells: CHO-K1
Description: (§1) A. In vitro 5-HT1A/B Activity Measurements: 5-HT1A/B cAMP HTRF assay (performed at Euroscreen, order no.: 5-HT1A:FAST-0500C, 5-HT1B: FAST-0501 C)
(§2) CHO-K1 cells expressing each human recombinant receptor (see Table 1) grown prior to the test in media without antibiotic were detached by gentle flushing with PBS-EDTA, recovered by centrifugation and resuspended in assay buffer. Dose response curves are performed in parallel with the reference compounds.
(§3) For agonist tests (96well): 12 µl of cells were mixed with 6 µl of the test compound at increasing concentrations and 6 µl of forskolin then incubated 30 min at room temperature. After addition of the lysis buffer and 1 hour incubation, cAMP concentrations were estimated, according to the manufacturer specification, with the HTRF kit (Cisbio).
Assay buffer consisted of: 5 mM KCI, 1.25 mM MgSO4, 124 mM NaCl, 25 mM HEPES, 13.3 mM Glucose, 1.25 mM KH2PO4, 1.45 mM CaCl2, and 0.5 g/I BSA. PBS-EDTA contained 137 mM NaCl, 2.7 mM KCI, 10 mM Na2HPO4, 2 mM KH2PO4 and 5 mM EDTA. Cell lines used were derived from CHO-K1 stably expressing the human receptors needed for the pharmacological testing (see Table 1). 5-Carboxamidotryptamine (5-CT) was used as reference agonist.
On each day of experimentation, reference compounds were tested at several concentrations in duplicate (n=2) to obtain a dose-response curve and an estimated EC50 value.
Reference values thus obtained for the test were compared to historical values obtained from the same receptor and used to validate the experimental session. […] For replicate determinations, the maximum variability tolerated in the test was of +/-20% around the average of the replicates.
(§4) Dose-response data from test compounds were analyzed with XLfit (IDBS) software using nonlinear regression applied to a sigmoidal dose-response model (4 Parameter Fit).
(§5) Agonist activity of test compounds is expressed as a percentage of the activity of the reference agonist at a saturating concentration.

[1] = molecular target: Muscarinic acetylcholine receptors M3 (Homo sapiens, UniProt P20309); details: cited from earlier work
5-HT1A = molecular target: T2, 5-HT1A (Homo sapiens, UniProt P08908); experiment: 5-HT1A cAMP HTRF assay (agonist test, Euroscreen FAST-0500C); assay type: cell-based
T2 construct: host or cells: CHO-K1
T2 sequence (P08908 1-422): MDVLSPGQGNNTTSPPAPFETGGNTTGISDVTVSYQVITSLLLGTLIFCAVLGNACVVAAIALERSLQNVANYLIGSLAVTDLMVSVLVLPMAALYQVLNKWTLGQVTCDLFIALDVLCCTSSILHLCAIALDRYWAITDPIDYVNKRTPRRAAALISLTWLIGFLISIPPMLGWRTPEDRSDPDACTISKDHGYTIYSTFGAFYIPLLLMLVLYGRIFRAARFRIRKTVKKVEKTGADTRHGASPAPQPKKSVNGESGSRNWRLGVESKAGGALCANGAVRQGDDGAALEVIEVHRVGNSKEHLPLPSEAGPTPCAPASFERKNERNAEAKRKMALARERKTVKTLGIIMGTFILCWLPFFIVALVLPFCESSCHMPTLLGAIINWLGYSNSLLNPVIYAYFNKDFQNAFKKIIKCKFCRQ
Description: as §1, §2, §3
Assay buffer consisted of: 5 mM KCI, 1.25 mM MgSO4, 124 mM NaCl, 25 mM HEPES, 13.3 mM Glucose, 1.25 mM KH2PO4, 1.45 mM CaCl2, and 0.5 g/I BSA. PBS-EDTA contained 137 mM NaCl, 2.7 mM KCI, 10 mM Na2HPO4, 2 mM KH2PO4 and 5 mM EDTA. […]
as §4, §5

[2] = molecular target: T3, Muscarinic acetylcholine receptors M2 (Homo sapiens, UniProt P08172); details: cited from earlier work
T3 sequence (P08172 1-466): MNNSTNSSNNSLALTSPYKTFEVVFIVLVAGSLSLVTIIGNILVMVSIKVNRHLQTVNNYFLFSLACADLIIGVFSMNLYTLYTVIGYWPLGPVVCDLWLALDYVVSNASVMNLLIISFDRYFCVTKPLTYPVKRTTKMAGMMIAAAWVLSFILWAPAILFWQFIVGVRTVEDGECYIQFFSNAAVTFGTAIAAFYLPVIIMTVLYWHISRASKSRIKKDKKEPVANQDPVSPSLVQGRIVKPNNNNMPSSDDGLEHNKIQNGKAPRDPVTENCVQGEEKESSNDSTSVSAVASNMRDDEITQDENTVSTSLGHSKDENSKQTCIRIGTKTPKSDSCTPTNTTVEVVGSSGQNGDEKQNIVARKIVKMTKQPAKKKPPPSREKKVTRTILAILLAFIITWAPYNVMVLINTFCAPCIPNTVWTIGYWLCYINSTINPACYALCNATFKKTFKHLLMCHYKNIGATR

NMDA receptor = details: cited from earlier work
[3] = cited from earlier work
MAO-B = molecular target: T4, MAO-B (Homo sapiens, UniProt P27338); details: cited from earlier work
T4 sequence (P27338 1-520): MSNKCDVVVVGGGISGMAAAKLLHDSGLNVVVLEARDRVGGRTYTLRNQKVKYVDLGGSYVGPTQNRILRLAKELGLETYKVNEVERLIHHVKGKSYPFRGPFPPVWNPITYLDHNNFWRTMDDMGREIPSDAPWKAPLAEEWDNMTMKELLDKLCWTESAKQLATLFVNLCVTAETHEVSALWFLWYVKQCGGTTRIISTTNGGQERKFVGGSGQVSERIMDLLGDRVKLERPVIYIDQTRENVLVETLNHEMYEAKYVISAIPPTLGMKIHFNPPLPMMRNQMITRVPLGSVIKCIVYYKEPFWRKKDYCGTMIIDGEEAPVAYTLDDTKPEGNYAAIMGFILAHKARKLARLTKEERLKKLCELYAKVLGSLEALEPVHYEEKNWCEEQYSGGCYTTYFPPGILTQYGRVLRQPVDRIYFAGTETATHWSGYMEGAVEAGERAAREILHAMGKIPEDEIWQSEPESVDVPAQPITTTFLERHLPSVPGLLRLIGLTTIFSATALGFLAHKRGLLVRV

5-HT2B = molecular target: T5, 5-HT2B (Homo sapiens, UniProt P41595); experiment: 5-HT2B IP-One HTRF assay (Euroscreen FAST-0506I); assay type: cell-based
T5 construct: host or cells: CHO-K1
Description: B. 5-HT2B assay (performed at Euroscreen, order no.: FAST-0506I):
The 5-HT2B [00136] IP-One HTRF assay was conducted with recombinant cell lines, receptor accession numbers, cellular background and reference compounds are shown in Table 1.
Cells expressing human recombinant 5-HT2B (FAST-506I) grown to mid-log phase in culture media without antibiotics will be detached with PBS-EDTA, centrifuged and resuspended in medium without antibiotics buffer. 20,000 cells will be distributed in a 96 well plate and incubated overnight at 37°C with 5% CO2.
For agonist testing, the medium will be removed and 20 µl of assay buffer plus 20 µl of test compound or reference agonist will be added in each well. The plate will be incubated for 60 min at 37°C with 5% CO2.
For antagonist testing, 20 µl of test compound or reference antagonist is added and the plate is incubated for 15 min. at 37°C in a humidified atmosphere of 95% air with 5% CO2, then 20 µl of reference agonist at a final concentration corresponding to the historical EC80 is added. […]
IP1-D2 reagent and anti-IP1 cryptate reagents will be then dispensed in the wells and DeltaF percentage values will be then calculated following the manufacturer (CisBio) recommendations. […]
as §4

[4] = molecular target: T6, Muscarinic acetylcholine receptors M1 (Homo sapiens, UniProt P11229); details: cited from earlier work
T6 sequence (P11229 1-460): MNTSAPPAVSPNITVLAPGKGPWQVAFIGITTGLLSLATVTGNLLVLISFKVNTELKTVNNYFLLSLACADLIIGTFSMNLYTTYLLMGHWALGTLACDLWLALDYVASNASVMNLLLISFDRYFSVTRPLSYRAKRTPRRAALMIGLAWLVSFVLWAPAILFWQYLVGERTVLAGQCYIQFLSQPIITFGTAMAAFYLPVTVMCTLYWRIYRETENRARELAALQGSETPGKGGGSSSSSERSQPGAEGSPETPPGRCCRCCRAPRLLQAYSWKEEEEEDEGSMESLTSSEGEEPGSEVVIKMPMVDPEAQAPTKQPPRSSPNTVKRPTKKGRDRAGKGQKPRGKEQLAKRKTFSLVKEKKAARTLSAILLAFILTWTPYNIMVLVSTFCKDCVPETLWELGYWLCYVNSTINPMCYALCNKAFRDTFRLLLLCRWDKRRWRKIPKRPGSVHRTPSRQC

MAO-A = molecular target: T7, MAO-A (Homo sapiens, UniProt P21397); details: cited from earlier work
T7 sequence (P21397 1-527): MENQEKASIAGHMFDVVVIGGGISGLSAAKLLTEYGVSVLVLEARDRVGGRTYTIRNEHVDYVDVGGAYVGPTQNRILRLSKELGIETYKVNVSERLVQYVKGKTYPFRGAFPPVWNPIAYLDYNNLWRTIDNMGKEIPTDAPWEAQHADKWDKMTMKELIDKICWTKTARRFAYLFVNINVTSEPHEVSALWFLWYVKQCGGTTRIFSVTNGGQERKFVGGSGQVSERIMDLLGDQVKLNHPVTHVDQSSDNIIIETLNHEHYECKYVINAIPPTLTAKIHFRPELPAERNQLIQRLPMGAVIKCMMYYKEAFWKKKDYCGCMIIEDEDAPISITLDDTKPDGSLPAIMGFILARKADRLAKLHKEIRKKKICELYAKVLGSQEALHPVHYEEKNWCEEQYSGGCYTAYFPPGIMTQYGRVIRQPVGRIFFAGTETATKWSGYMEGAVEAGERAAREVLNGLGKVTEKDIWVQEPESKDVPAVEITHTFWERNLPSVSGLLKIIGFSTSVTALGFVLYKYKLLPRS

T1 sequence (P28222 whole entry): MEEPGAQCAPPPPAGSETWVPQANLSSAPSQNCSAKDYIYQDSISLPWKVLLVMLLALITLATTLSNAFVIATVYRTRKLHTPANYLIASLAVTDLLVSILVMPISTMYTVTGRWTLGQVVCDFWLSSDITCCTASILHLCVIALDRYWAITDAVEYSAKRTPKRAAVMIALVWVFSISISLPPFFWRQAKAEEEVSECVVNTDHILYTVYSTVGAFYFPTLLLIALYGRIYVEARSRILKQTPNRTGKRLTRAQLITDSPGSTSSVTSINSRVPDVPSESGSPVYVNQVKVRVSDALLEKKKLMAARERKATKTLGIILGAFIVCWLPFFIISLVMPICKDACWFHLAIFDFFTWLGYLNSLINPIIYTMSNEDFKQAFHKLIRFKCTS
Muscarinic acetylcholine receptors M3, sequence (P20309 whole entry): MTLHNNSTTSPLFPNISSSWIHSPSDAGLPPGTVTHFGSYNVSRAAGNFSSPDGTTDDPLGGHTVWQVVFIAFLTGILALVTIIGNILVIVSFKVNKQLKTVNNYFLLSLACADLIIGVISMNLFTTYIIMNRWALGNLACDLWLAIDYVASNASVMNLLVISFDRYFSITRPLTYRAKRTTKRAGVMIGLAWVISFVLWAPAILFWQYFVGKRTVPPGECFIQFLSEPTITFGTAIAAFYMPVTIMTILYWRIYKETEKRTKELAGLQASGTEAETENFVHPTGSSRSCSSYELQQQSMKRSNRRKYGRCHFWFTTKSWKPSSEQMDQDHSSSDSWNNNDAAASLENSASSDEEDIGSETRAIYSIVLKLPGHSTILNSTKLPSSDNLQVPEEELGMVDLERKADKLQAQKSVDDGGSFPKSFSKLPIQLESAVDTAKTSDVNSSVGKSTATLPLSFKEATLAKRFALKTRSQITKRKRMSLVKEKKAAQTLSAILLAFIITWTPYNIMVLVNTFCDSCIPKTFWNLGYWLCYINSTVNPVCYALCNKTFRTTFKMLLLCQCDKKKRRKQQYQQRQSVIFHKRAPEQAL
T5 sequence (P41595 whole entry): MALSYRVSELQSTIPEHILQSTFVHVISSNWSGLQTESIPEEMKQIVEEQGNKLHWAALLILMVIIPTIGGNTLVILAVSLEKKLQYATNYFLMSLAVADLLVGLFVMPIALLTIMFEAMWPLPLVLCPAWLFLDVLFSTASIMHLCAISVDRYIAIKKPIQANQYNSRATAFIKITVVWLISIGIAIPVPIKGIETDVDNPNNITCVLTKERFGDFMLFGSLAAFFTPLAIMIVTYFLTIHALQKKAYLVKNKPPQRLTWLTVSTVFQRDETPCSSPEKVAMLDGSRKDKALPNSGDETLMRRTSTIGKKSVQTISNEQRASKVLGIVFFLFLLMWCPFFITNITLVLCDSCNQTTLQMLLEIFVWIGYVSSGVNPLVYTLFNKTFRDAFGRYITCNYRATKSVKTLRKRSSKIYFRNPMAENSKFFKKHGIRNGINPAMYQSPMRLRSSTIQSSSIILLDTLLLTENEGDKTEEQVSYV

Row | SMILES | reduction of LID (6-OHDA-lesioned rats) [%] | Emax (5-HT1B; 0.5 h, CHO-K1 cells, human recombinant receptor, percentage of the activity of reference agonist 5-CT at saturating concentration, read-out: partial agonism, efficacy at 5-HT1B) [%] | EC50 (5-HT1B; CHO-K1 cells, human recombinant receptor, cAMP with forskolin, read-out: partial agonism at 5-HT1B (potency)) [nM] | action at the 5-HT1B receptor (5-HT1B; human recombinant cell lines) | effect on LID (AIM scores) (6-OHDA-lesioned rats; 10 mg/kg p.o., 10 min before L-DOPA/benserazide 6/15 mg/kg i.p.) | activity at Muscarinic acetylcholine receptor M3 [1] | EC50 (5-HT1A) [nM] | Emax (5-HT1A; 0.5 h, CHO-K1 cells, human recombinant receptor, percentage of the activity of reference agonist 5-CT at saturating concentration, read-out: partial agonism, efficacy at 5-HT1A) [%] | activity at Muscarinic acetylcholine receptor M2 [2] | activity at NMDA receptor (NMDA receptor) | adverse events in Phase 1 studies [3] | activity at MAO-B (MAO-B) | IC50 (5-HT2B) [nM] | activity at Muscarinic acetylcholine receptor M1 [4] | activity at MAO-A (MAO-A)
1 | NC12CC3CC(CC(C3)C1)C2 [Amantadine] | -25 | – | – | – | – | – | – | – | – | – | – | – | – | – | –
2 | c1cc2c(c(N3CCNCC3)c1)OCCO2 [Eltoprazine] | -60 | – | – | – | – | – | – | – | – | – | – | – | – | – | –
3 | COc1cccc2c1CCC(=O)N2CCCN1CCN(c2cccc(Cl)c2)CC1 [OPC-14523, 1-[3-[4-(3-Chlorophenyl)piperazin-1-yl]propyl]-5-methoxy-1,2,3,4-tetrahydroquinolin-2-one] | – | ~60 | 7 | partial agonist | strongly reduced LID | inactive | 26 | ~60 | inactive | inactive | no adverse events | inactive | 160 | inactive | inactive
